The target of assay [1] is T1, Human Recombinant Cyclooxygenase-2 (Homo sapiens, UniProt P35354).
T1 construct: made in house; host or cells: COS cells (transient expression; microsomes prepared after 66 hours)
T1 sequence (P35354 18-604): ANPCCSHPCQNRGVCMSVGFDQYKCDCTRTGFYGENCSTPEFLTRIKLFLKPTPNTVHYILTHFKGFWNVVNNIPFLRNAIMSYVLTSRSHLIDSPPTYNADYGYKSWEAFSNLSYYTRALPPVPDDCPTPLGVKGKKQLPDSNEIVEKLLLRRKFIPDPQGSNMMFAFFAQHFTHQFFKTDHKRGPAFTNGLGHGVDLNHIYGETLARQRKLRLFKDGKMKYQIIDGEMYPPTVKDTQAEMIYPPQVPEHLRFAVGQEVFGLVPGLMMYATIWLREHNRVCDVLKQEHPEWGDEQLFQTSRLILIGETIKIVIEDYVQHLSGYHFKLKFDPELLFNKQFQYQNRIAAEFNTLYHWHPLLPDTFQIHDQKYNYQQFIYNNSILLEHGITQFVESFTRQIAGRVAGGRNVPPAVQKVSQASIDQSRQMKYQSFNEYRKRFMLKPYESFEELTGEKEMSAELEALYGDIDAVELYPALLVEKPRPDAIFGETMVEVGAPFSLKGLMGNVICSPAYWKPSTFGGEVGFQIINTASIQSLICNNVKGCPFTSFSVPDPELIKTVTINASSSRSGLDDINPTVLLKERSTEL
Description: Inhibitory activity on human recombinant cyclooxygenase-2 microsomes from COS cells (PGE2 ELISA). It counts as biochemical. The following applies: for IC50: human recombinant COX-2 microsomes, PGE2 formation, read-out: Inhibitory Effect on COX-2 [IC50 (μM)]. As to the method: In order to prepare cyclooxygenase-1 (COX-1) microsomes, ram seminal vesicles were homogenised by a blender. To prepare cyclooxygenase-2 (COX-2) microsomes, an expression vector which contains the human COX-2 gene was introduced into COS cells. The cells were homogenised by sonication after 66 hours cultivation. Microsomes were then prepared in accordance with conventional methods.
Enzyme activity was assayed as follows.
(§1) The assay mixture contained 10 μl of COX-1 or COX-2 microsomes (5 to 15 μg), 2 μl of sample dissolved in dimethyl sulfoxide, 50 μl of 200 mM Tris (pH 7.6), 10 μl of 20 mM reduced glutathione, 10 μl of 10 mM epinephrine, and 15.5 μl of distilled water. After preincubation at 37° C. for 15 minutes, 2.5 μl of 10 μM arachidonic acid (dissolved in ethanol) were then added to the mixture (final volume of 100 μl) and allowed to react at 37° C. for 30 minutes. The final dimethyl sulfoxide and ethanol concentrations were 2% and 2.5%, respectively. To the reaction mixture were then added 15 μl of ice-cooled 0.2M HCl to stop the reaction, and the mixture was cooled at 4° C. for 5 minutes. 15 μl of a 0.2M aqueous solution of sodium hydroxide were then added to the reaction mixture to neutralise the pH. The amount of PGE2, in the reaction mixture was measured using a commercially available ELISA kit (Cayman). IC50 was calculated from the regression line determined by the inhibition rates of PGE2 formation and the concentrations of the compound.

Assay [2] has as its system Carrageenan-induced Paw Edema in rats. Briefly: Carrageenan-induced paw edema test. It counts as in vivo, Wistar-Imamichi rats. The following applies: Rattus norvegicus, oral, 3 hours after carrageenan, read-out: Inhibition Rate (%). The method in brief:
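Male Wistar-Imamichi rats (6 weeks, 110-120 g), fasted 16 h, dosed orally 30 min before subplantar injection of 1% carrageenan into right hind paw. Paw volume measured by plethysmometer before dosing and 3 h after carrageenan; edema intensity = (volume at 3 h/volume before injection) − 1.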

Assay [3] concerns the target T2, Cyclooxygenase-1 from Ram Seminal Vesicle Microsomes (RSVM) (Ovis aries, UniProt P05979).
T2 construct: ram seminal vesicles were homogenised by a blender; from tissue; host or cells: ram seminal vesicles (microsomes)
T2 sequence (P05979 25-600): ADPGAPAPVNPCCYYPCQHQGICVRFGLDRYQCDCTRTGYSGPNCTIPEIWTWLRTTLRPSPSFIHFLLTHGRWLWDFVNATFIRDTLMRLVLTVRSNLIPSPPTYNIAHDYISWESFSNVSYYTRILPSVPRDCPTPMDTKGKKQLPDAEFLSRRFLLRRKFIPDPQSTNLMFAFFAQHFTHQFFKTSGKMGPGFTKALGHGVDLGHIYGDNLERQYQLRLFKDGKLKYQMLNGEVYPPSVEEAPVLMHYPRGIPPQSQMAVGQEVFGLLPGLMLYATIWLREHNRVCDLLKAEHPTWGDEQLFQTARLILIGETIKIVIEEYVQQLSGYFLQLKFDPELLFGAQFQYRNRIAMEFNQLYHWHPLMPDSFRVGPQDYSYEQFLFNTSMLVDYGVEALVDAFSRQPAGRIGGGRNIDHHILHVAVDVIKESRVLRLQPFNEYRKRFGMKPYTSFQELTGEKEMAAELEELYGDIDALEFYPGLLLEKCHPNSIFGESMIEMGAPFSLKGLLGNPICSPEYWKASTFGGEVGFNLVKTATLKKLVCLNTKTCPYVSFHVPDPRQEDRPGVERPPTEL
Briefly: Inhibitory activity on cyclooxygenase-1 from ram seminal vesicle microsomes (PGE2 ELISA). The settings on record: PGE2 formation, read-out: Inhibitory Effect on COX-1[IC50(μM)]. It counts as biochemical. As to the method: as §1, with “In order to prepare cyclooxygenase-1 (COX-1) microsomes, ram seminal vesicles were homogenised by a blender. To prepare cyclooxygenase-2 (COX-2) microsomes, an expression vector which contains the human COX-2 gene was introduced into COS cells. The cells were homogenised by sonication after 66 hours cultivation. Microsomes were then prepared in accordance with conventional methods. Enzyme activity was assayed as follows. The assay” for “The assay”
(In general: An ELISA detects its analyte on a solid surface through an enzyme-linked reagent.)

Where only a bound is given, the exact number is not on record here.

The IC50 is the midpoint of a concentration-inhibition curve.

In the case of `Cc1ccc(-c2ccccc2)n1-c1ccc(S(N)(=O)=O)cc1` [Compound A, 5-methyl-2-phenyl-1-(4-sulfamoylphenyl)pyrrole, reference compound], the IC50 in assay [1] and in assay [3] was greater than 100 µM each time. For the same compound, in assay [2], the inhibition in vivo at 50 mg/kg stood at 14%.
Regarding `COc1ccc(-c2cc(C)cn2-c2ccc(S(N)(=O)=O)cc2)cc1` [Example 52, 2-(4-Methoxyphenyl)-4-methyl-1-(4-sulfamoylphenyl)pyrrole], the figures for the IC50 in assay [1] and in assay [3] were 0.016 µM and greater than 100 µM, respectively. Moreover, the “Selectivity (COX-1/COX-2)” value in assay [1] (ratio of IC50 COX-1/COX-2) is given as greater than 6250. Also, in assay [2], the inhibition in vivo at 50 mg/kg was 65%.

The values above are taken from patent publication USRE39420E1, “1,2-Diphenylpyrrole derivatives, their preparation and their therapeutic uses” (Sankyo Company, Limited, priority 1996, dated 2006).
